Test results: patent US8466311B2, “Neuroprotective compositions and methods” (Sanford-Burnham Medical Research Institute, priority 2006, dated 2013)
“Also recorded” adds a separate entry of the source.

Key:
GSH [1] = test: Brain GSH and GSSG after feeding CA; assay type: in vivo, mouse; conditions: food containing 0.03% CA for a week
Method: Mice were fed 0.03% CA for 1 week, and their brains were then removed, lysed and subjected to GSH and GSSG measurement.
Measurement of brain GSH. After exsanguination via heart puncture under ether anesthesia, mouse brains were removed and quickly frozen in liquid nitrogen. We ruled out GSH as a contaminant from blood vessels by HPLC analysis of blood components in the brain lysates.
The frozen brains were lysed with 1% sulfosalicylic acid on ice for 10 min, and total glutathione (reduced and oxidized) was determined as described previously (Sagara et al., 2002). Briefly, after the lysates had been incubated on ice for 10 min, the supernatants were collected after centrifugation in Eppendorf microfuge tubes. Upon neutralization of each supernatant with triethanolamine, the total glutathione (reduced and oxidized) concentration was determined. Pure GSH was used to obtain the standard curve. For the determination of oxidized GSH, the method of Griffith using 2-vinylpyridine was used to deplete the reduced GSH.
Mice were allowed free access to food containing 0.03% CA for a week. Their brains were then removed, and extracts were prepared and measured for GSH and GSSG levels. Under these conditions, CA increased both total GSH+GSSG and the ratio of GSH/GSSG (FIG. 6). […]

GSH [2] = test: Total GSH levels in cortical cultures; assay type: cell-based; conditions: cortical cultures, control 46.8±4.5 nmol/mg protein
Method: Cell cultures, transfection, and glutathione (GSH) measurement. […] Transfection was performed with Lipofectamine 2000 (Invitrogen). In the reporter gene assays, firefly luciferase activity in cell lysates was measured with a luminometer (Promega). Total GSH (reduced and oxidized) was determined as described (Lee et al., Biochem. Biophys. Res. Commun. 280:286-292, 2001).
One caveat to the mechanism of NEPP and other electrophilic compounds acting at the level of Keap1 to induce HO-1 transcription is that NEPP could potentially react indiscriminately with other thiol-containing compounds in cells. To approach this question, we assessed cellular glutathione (GSH) levels to determine whether NEPP11 would affect this abundant antioxidant thiol. Nepp11 or N-ethylmaleimide (NEM) was added at t=0 and levels of total GSH were measured at the indicated times. GSH content of control cortical cultures (set arbitrarily at 100%) was 46.8±4.5 nmol/mg protein. […] In fact, this scenario seems likely, because the Keap1/Nrf2 pathway regulates the expression of γ-GCL in addition to HO-1 (Itoh et al., Mol. Cell. Biol. 24:36-45, 2004). […]
Transfections were performed with Lipofectamine 2000 (Invitrogen), and firefly luciferase activity in cell lysates was measured with a luminometer in the reporter gene assays (Promega).

Compound	ratio of GSH/GSSG in brain (GSH [1])	total GSH+GSSG in brain (GSH [1])	total GSH levels (GSH [2])
CC(C)c1cc2c(c(O)c1O)[C@@]1(C(=O)O)CCCC(C)(C)[C@@H]1CC2 [CA, carnosic acid]	increased	increased	
COC(=O)CCCCC/C=C1/C(=O)C=C[C@H]1CCCCCCc1ccc(C)cc1 [NEPP11]			did not deplete GSH levels; also recorded: transiently increased
